Experimental data: PMC9412104, “Biochemical and Structural Insights on the Poplar Tau Glutathione Transferase GSTU19 and 20 Paralogs Binding Flavonoids” (Frontiers in Molecular Biosciences, 2022)
Read-outs that look alike come from different tables or passages of the source.

What was measured:
PtGSTU20C160Y = PtGSTU20C160Y (Populus trichocarpa, UniProt D2X9R3, C160Y); experiment: GSH-conjugation activity toward model substrates, variant; assay type: biochemical; settings: PtGSTU19 C160Y in Table S4, fixed saturating GSH, mean ± S.D.
Sequence of PtGSTU20C160Y (D2X9R3 2-219 C160Y): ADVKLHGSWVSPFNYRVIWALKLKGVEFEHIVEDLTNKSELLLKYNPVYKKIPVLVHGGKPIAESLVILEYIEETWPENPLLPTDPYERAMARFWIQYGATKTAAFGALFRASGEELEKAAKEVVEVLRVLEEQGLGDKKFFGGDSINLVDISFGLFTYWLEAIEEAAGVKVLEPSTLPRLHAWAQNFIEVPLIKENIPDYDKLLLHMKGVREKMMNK
Method: (§2) Peroxidase activity toward hydroperoxides was measured using an NADPH coupled spectrophotometric assay ([Pégeot et al., 2014]).
(§3) The measured velocities were corrected by subtracting the rate of the spontaneous nonenzymatic reaction, and three independent experiments were performed at each substrate concentration.

PtGSTU19Y160F = PtGSTU19Y160F (Populus trichocarpa, UniProt B9HKX9, Y160F); experiment: as above; assay type: biochemical; settings: PtGSTU19 Y160F, GSH-conjugation, fixed saturating GSH, mean ± S.D., n = 3
Sequence of PtGSTU19Y160F (B9HKX9 2-219 Y160F): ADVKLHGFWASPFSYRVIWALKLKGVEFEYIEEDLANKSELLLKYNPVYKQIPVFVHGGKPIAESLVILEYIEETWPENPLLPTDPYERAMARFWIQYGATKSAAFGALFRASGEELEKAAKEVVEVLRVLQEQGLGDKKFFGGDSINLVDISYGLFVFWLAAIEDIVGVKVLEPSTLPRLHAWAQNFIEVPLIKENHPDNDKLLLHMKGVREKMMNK
Method: as §2, §3

PtGSTU19 [1] = target: T1, PtGSTU19 (Populus trichocarpa, UniProt B9HKX9); experiment: GSH-conjugation activity toward model substrates
T1 sequence (B9HKX9 entry or part of it): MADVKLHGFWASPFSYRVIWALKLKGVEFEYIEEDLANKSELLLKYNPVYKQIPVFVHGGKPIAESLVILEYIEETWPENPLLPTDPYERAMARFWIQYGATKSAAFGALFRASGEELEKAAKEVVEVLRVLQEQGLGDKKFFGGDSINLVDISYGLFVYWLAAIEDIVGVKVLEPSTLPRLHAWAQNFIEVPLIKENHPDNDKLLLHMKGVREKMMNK

PtGSTU20 [2] = target: T2, PtGSTU20 (Populus trichocarpa, UniProt D2X9R3); experiment: GSH-conjugation activity toward model substrates; settings: for k cat: 25°C, fixed 1 mM GSH (0.7 mM with HNE), mean ± S.D., n = 3
T2 sequence (D2X9R3 entry or part of it): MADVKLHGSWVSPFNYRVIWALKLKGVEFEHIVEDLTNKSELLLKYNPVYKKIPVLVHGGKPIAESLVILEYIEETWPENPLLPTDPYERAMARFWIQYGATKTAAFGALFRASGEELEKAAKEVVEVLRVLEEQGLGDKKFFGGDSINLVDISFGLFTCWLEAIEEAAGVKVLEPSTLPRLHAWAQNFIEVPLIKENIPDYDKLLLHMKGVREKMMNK

PtGSTU19Y160C = PtGSTU19Y160C (Populus trichocarpa, UniProt B9HKX9, Y160C); experiment: GSH-conjugation activity toward model substrates, variant; assay type: biochemical; settings: PtGSTU19 Y160C, fixed saturating GSH, mean ± S.D.
Sequence of PtGSTU19Y160C (B9HKX9 2-219 Y160C): as the sequence (B9HKX9 2-219 Y160F) above, with F159C counted along it
Method: as §2, §3

PtGSTU19Y160A = PtGSTU19Y160A (Populus trichocarpa, UniProt B9HKX9, Y160A); experiment: as above; assay type: biochemical; settings: PtGSTU19 Y160A, fixed saturating GSH, mean ± S.D.
Sequence of PtGSTU19Y160A (B9HKX9 2-219 Y160A): as the sequence (B9HKX9 2-219 Y160F) above, with F159A counted along it
Method: as §2, §3

PtGSTU19 [3] = target: T1, PtGSTU19; experiment: Competition (inhibition) assay of GSH-conjugation with PITC as substrate; assay type: biochemical; settings: read-out: K i
Method: (§4) The measured velocities were corrected by subtracting the rate of the spontaneous nonenzymatic reaction, and three independent experiments were performed at each substrate concentration. The kinetic parameters (k cat and apparent K m) and the inhibition constants (K i) were, respectively, obtained by fitting the data to the nonlinear regression Michaelis–Menten model (kinetic assays) and to the mixed inhibition model (inhibition assays) in GraphPad Prism 8 software ([Copeland, 2013]).

PtGSTU20 [4] = target: T2, PtGSTU20; experiment: as above; assay type: biochemical; settings: read-out: K i
Method: as §4

PtGSTU19 [5] = target: T1, PtGSTU19; experiment: Thermal shift assay (SYPRO orange); assay type: binding; settings: for ΔTm at 100 µM: read-out: ΔTd (denaturation temperature difference)
Method: (§1) Assays were performed in a mixture (final volume of 25 µL) containing 30 mM Tris-HCl pH 8.0, 100 µM of chemical compounds (diluted in 8% DMSO) originating from a chemical library (Supplementary Tables S2, S3), 20 µM of PtGSTU19 or 20, and 5X SYPRO orange. […] The denaturation temperature, which corresponds to the temperature at which 50% of the total fluorescence is measured, was determined by the nonlinear regression Boltzmann sigmoidal model in GraphPad Prism 8 software for data obtained in the presence of potential ligands. This temperature was compared with a reference assay in which organic compounds were replaced by an equivalent DMSO concentration.

PtGSTU20 [6] = target: T2, PtGSTU20; experiment: Thermal shift assay (SYPRO orange); assay type: binding
Method: as §1

PtGSTU19 [7] = target: T1, PtGSTU19; experiment: Peroxidase activity, NADPH coupled spectrophotometric assay; assay type: biochemical; settings: enzyme concentration increased up to 10 µM
Method: as §2, §4

PtGSTU20 [8] = target: T2, PtGSTU20; experiment: as above; assay type: biochemical; settings: enzyme concentration increased up to 10 µM
Method: as §2, §4

[9] = PtGSTU19, 25°C, fixed 1 mM GSH (0.7 mM with HNE), mean ± S.D., n = 3
[10] = PtGSTU19 20 µM, compound 100 µM, vs DMSO reference, flavonoid set (Table S3, Figure 4)
[11] = PtGSTU20 20 µM, compound 100 µM, vs DMSO reference, flavonoid set (Table S3, Figure 4), read-out: ΔTd (denaturation temperature difference)
[12] = read-out: ΔTd (denaturation temperature difference)
[13] = PtGSTU19 apo form 20 µM, compound 100 µM, vs DMSO reference, first chemical library screen (Table S2, Figure S9)
[14] = PtGSTU20 apo form 20 µM, compound 100 µM, vs DMSO reference, first chemical library screen (Table S2, Figure S9)

Molecule: S=C=NCCc1ccccc1 [PITC, phenethyl-isothiocyanate]
- k cat (PtGSTU20C160Y; n = 3): 2.03 ± 0.08 s⁻¹
- Km (PtGSTU20C160Y; n = 3, read-out: apparent KM): 58.3 ± 9.2 µM
- k cat (PtGSTU19Y160F): 3.9 ± 0.07 s⁻¹
- Km (PtGSTU19Y160F; read-out: apparent KM): 31.1 ± 2.5 µM
- k cat (PtGSTU19 [1]; [9]): 3.8 ± 0.1 s⁻¹
- Catalytic efficiency (PtGSTU20 [2]): 88900 M⁻¹ s⁻¹
- k cat (PtGSTU20 [2]): 5.1 ± 0.1 s⁻¹
- k cat (PtGSTU19Y160C; n = 3): 3.05 ± 0.05 s⁻¹
- Km (PtGSTU19Y160C; n = 3, read-out: apparent KM): 40.3 ± 3 µM
- k cat (PtGSTU19Y160A; n = 3): 2.3 ± 0.03 s⁻¹
- Km (PtGSTU19Y160A; n = 3, read-out: apparent KM): 49.2 ± 2.6 µM

Molecule: CCCC(=O)Oc1ccc([N+](=O)[O-])cc1 [PNP-butyrate, 4-nitrophenyl-butyrate]
- Catalytic efficiency (PtGSTU19 [1]; PtGSTU19): 100 M⁻¹ s⁻¹
- k cat (PtGSTU19 [1]; [9]): 0.040 ± 0.001 s⁻¹
- k cat/K m (PtGSTU19 [1]; [9]): 0.100 ± 0.002 10^3 M^-1s^-1
- Catalytic efficiency (PtGSTU20 [2]): 100 M⁻¹ s⁻¹
- k cat (PtGSTU20 [2]): 0.020 ± 0.001 s⁻¹

Molecule: O=C1C[C@@H](c2ccccc2)Oc2cc(O)cc(O)c21 [Pinocembrin]
- Ki (PtGSTU19 [3]): 152 ± 13.5 µM
- Ki (PtGSTU20 [4]): 61.2 ± 10.5 µM
- ΔTm at 100 µM (PtGSTU19 [5]; [10]): -0.01 ± 0.12 °C
- ΔTm at 100 µM (PtGSTU20 [6]; [11]): 1.68 °C

Molecule: O=c1cc(-c2ccc(O)cc2)oc2cc(O)cc(O)c12 [apigenin]
- ΔTm at 100 µM (PtGSTU20 [6]; [12]): 1.41 °C

Molecule: O=C(/C=C/c1ccc(O)c(O)c1)c1ccc(O)cc1O [butein]
- ΔTm at 100 µM (PtGSTU20 [6]; [11]): 2.32 °C

Molecule: O=C(CCc1ccc(O)cc1)c1c(O)cc(O)cc1O [phloretin]
- ΔTm at 100 µM (PtGSTU20 [6]; [11]): 3.11 °C

Molecule: O=c1c(O)c(-c2ccc(O)c(O)c2)oc2cc(O)cc(O)c12 [quercetin]
- ΔTm at 100 µM (PtGSTU19 [5]): > 4 °C
- ΔTm at 100 µM (PtGSTU20 [6]; [12]): > 4 °C

Molecule: CC(C)(C)OO [t-BOOH, tert-butyl hydroperoxide]
- Peroxidase activity (active on the peroxide) (PtGSTU19 [7]): not
- Peroxidase activity (active on the peroxide) (PtGSTU20 [8]): not

Molecule: COc1c(O)cc(O)c2c(=O)cc(-c3ccccc3)oc12 [wogonin]
- ΔTm at 100 µM (PtGSTU20 [6]; read-out: ΔTd (denaturation temperature difference), PtGSTU20 20 µM, compound 100 µM, vs DMSO reference, flavonoid set (Table S3, Figure 4)): 5.17 °C

Molecule: glutathionyl-phenylacetophenone [GS-PAP]
- Ki (PtGSTU19 [3]; PtGSTU19, GSH-conjugating reaction with PITC as substrate, mixed model inhibition, ND = no inhibition was detected): 2.3 ± 0.8 µM
- Ki (PtGSTU20 [4]; PtGSTU20, GSH-conjugating reaction with PITC as substrate, mixed model inhibition, ND = no inhibition was detected): 5.1 ± 2.1 µM
- ΔTd (denaturation temperature difference) (PtGSTU19 [5]; [10]): 4.99 ± 0.28 °C
- ΔTd (denaturation temperature difference) (PtGSTU19 [5]; [13]): +8.39 °C
- ΔTd (denaturation temperature difference) (PtGSTU20 [6]; PtGSTU20 20 µM, compound 100 µM, vs DMSO reference, flavonoid set (Table S3, Figure 4)): 6.48 ± 0.17 °C
- ΔTd (denaturation temperature difference) (PtGSTU20 [6]; [14]): +9.62 °C

Molecule: oxidized glutathione [GSSG]
- ΔTd (denaturation temperature difference) (PtGSTU19 [5]; [13]): little or no change
- ΔTd (denaturation temperature difference) (PtGSTU20 [6]; [14]): little or no change
